Here are results for 14 compounds from article PMC6445168, “Design, synthesis and antimalarial activity of novel bis{N-[(pyrrolo[1,2-a]quinoxalin-4-yl)benzyl]-3-aminopropyl}amine derivatives” (Journal of Enzyme Inhibition and Medicinal Chemistry, 2017).

Structures are written as SMILES. A value given as a limit tells only on which side of the number the result lay.

Data set [1] relates to P. falciparum CQ-resistant strain W2. Briefly: In vitro antiplasmodial activity, SYBR Green I fluorescence-based method, W2 strain. Type of data set: cell-based, Plasmodium falciparum. Conditions: for IC50: Plasmodium falciparum, chloroquine-resistant strain W2, 48 h incubation, read-out: P. falciparum strains IC50 values, W2; for Selectivity Index HepG2/W2: ratio CC50 HepG2 / IC50 W2. How it is done:
(§1) The in vitro antiplasmodial activities were tested over concentrations ranging from 39 nM to 40 μM against culture-adapted Plasmodium falciparum reference strains 3D7 and W2. […] The parasites were cultivated in RPMI medium (Sigma-Aldrich, Lyon, France) supplemented with 0.5% Albumax I (Life Technologies corporation, Paisley, United Kingdom), hypoxanthine (Sigma-Aldrich), gentamicin (Sigma-Aldrich), and human erythrocytes and were incubated at 37 °C in a candle jar, as described previously. The P. falciparum drug susceptibility test was carried out in 96-well flat bottom sterile plates under a final volume of 250 μL. After a 48 h incubation with the drugs, quantities of DNA in treated and control cultures of parasites in human erythrocytes were compared according to the SYBR Green I (Sigma-Aldrich) fluorescence-based method[38]^,[39]. Briefly, after incubation, plates were frozen at -20 °C until use. They were then left to thaw for 2 h at room temperature and 100 μL of the homogenized culture were transferred to 96-well flat bottom sterile black plates (Nunc Inc) already containing 100 μL of the SYBR Green I lysis buffer (2xSYBR Green, 20 mM Tris base pH 7.5, 5 mM EDTA, 0.008% w/v saponin, 0.08% w/v Triton X-100). […] Plates were incubated for 1 h at room temperature and then read on a fluorescence plate reader (Tecan, Austria) using excitation and emission wavelengths of 485 and 535 nm, respectively.

Data set [2] has as its system L. donovani (MHOM/IN/00/DEVI) promastigotes. Briefly: In vitro antileishmanial activity on promastigotes, MTT assay. In kind it is cell-based. Conditions: Leishmania donovani, 72 h incubation, mean ± SD of three independent experiments. The method, then: L. donovani (MHOM/IN/00/DEVI) used in this study was provided by the CNR Leishmania (Montpellier, France). The effects of the tested compounds on the growth of L. donovani (MHOM/IN/00/DEVI)promastigotes were assessed by MTT assay[41] .Briefly, promastigotes in log-phase in Schneider′s medium supplemented with 20% fetal calf serum (FCS), 2 mM L-glutamine and antibiotics (100 U/mL penicillin and 100 μg/mL streptomycin), were incubated at an average density of 10^6 parasites/mL in sterile 96-well plates with various concentrations of compounds dissolved in DMSO (final concentration less than 0.5% v/v), in duplicate. Appropriate controls treated by DMSO and pentamidine or amphotericin B (reference drugs purchased from Sigma-Aldrich) were added to each set of experiments. After a 72 h incubation period at 27 °C, parasite metabolic activity was determined. Each plate-well was then microscope-examined for detecting possible precipitate formation. 20 μL of MTT 3–(4,5-dimethylthiazol-2-yl)-2,5-diphenyltetrazolium bromide) solution (5 mg/mL) were added to each well followed by incubation for another 4 h. The enzyme reaction was then stopped by addition of 100 μL of 50% isopropanol – 10% sodium dodecyl sulfate[42] .Plates were shaken vigorously (300 rpm) for 10 minutes and the absorbance measured in a plate reader at 570 nm in a BIO-TEK ELx808 Absorbance Microplate Reader. […] IC50 were calculated by non-linear regression analysis processed on doseresponse curves, using TableCurve 2D V5.0 software. IC50 values represent the mean value calculated from three independent experiments.

In data set [3] the test system is P. falciparum CQ-sensitive strain 3D7. Briefly: In vitro antiplasmodial activity, SYBR Green I fluorescence-based method, 3D7 strain. Type of data set: cell-based, Plasmodium falciparum. Conditions: for IC50: Plasmodium falciparum, 3D7, 48 h, chloroquine-sensitive strain 3D7, 48 h incubation, read-out: P. falciparum strains IC50 values, 3D7; for Selectivity Index HepG2/3D7: ratio CC50 HepG2 / IC50 3D7. How it is done: as §1

The nature of data set [4]: Cytotoxicity evaluation, MTT assay. In kind it is cell-based, human. Conditions: human, HepG2 cells (hepatocarcinoma cell line, ATCC HB-8065); HepG2, 72 h incubation, mean ± SD of three independent experiments. The method, then: These assays were performed toward the human HepG2 cell line (HepG2 CC50). […] These cells express many of the hepatocyte-specific metabolic enzymes, thus enabling the cytotoxicity of tested product metabolites to be evaluated. […] Duplicate assays were performed for each sample. Each plate-well was then microscope-examined for detecting possible precipitate formation before the medium was aspirated from the wells. 100 μL of MTT solution (0.5 mg/mL in medium without FCS) were then added to each well. […] After this time, the MTT solution was removed and DMSO (100 μL) was added to dissolve the resulting blue formazan crystals. Plates were shaken vigorously (300 rpm) for 5 minutes. The absorbance was measured at 570 nm with 630 nm as reference wavelength spectrophotometer using a BIO-TEK ELx808 Absorbance Microplate Reader. DMSO was used as blank and doxorubicin (Sigma Aldrich) as positive control. Cell viability was calculated as percentage of control (cells incubated without compound). The 50% cytotoxic concentration was determined from the dose-response curve by using the TableCurve 2D V5.0 software (Systat Software, San Jose, CA).
For orientation: Tetrazolium dyes change colour on reduction, which living cells bring about.

For orientation: IC50 means the concentration at which inhibition is half-maximal. As usually defined, the CC50 is the concentration giving 50% cytotoxicity.

In the case of `COc1ccc2nc(-c3ccc(CNCCCN4CCN(CCCNCc5ccc(-c6nc7ccc(OC)cc7n7cccc67)cc5)CC4)cc3)c3cccn3c2c1` [1g, Bis{N-[4–(8-methoxypyrrolo[1,2-a]quinoxalin-4-yl)benzyl]-3-aminopropyl}piperazine], the figures for the half-inhibitory concentration (IC50) in data set [1], in data set [2] and in data set [3] were 360 ± 40 nM, 1070 ± 100 nM and 2220 ± 250 nM, respectively. The “Selectivity Index HepG2/W2” value in data set [1] was 5.94. The “Selectivity Index HepG2/3D7” value in data set [3] is given as 0.96. The compound also showed a CC50 at 72 h in data set [4] of 2140 ± 1400 nM.

As for `COc1ccc2c(c1)nc(-c1ccc(CNCCCN(CCCNCc3ccc(-c4nc5cc(OC)ccc5n5cccc45)cc3)CCCNCc3ccc(-c4nc5cc(OC)ccc5n5cccc45)cc3)cc1)c1cccn12` [1s, Tris{N-[4–(7-methoxypyrrolo[1,2-a]quinoxalin-4-yl)benzyl]-3-aminopropyl}amine], in data set [1], the IC50 was determined as 290 ± 50 nM and the “Selectivity Index HepG2/W2” value worked out at 5.72. In data set [2], this compound had an IC50 of at least 10000 nM. Moreover, in data set [3], the half-inhibitory concentration (IC50) turned out to be 200 ± 40 nM and the “Selectivity Index HepG2/3D7” value stood at 8.30. In data set [4], this compound came in with a CC50 at 72 h of 1660 ± 500 nM.

Take `COc1ccc2nc(-c3cccc(CNCCCN(C)CCCNCc4cccc(-c5nc6ccc(OC)cc6n6cccc56)c4)c3)c3cccn3c2c1` [1o, Bis{N-[3–(8-methoxypyrrolo[1,2-a]quinoxalin-4-yl)benzyl]-3-aminopropyl}methylamine]: in data set [1], the half-maximal inhibitory concentration (IC50) turned out to be 206 ± 30 nM and the “Selectivity Index HepG2/W2” value was found to be 7.28. In addition, it took 3510 ± 100 nM to reach half-maximal inhibition in data set [2] (IC50). In addition, in data set [3], the half-maximal inhibitory concentration (IC50) was 180 ± 20 nM and the “Selectivity Index HepG2/3D7” value worked out at 8.33. The midpoint of cytotoxicity in data set [4], the CC50 at 72 h, lay at 1500 ± 900 nM.

As for `COc1ccc2nc(-c3ccc(CNCCCN(C)CCCNCc4ccc(-c5nc6ccc(OC)cc6n6cccc56)cc4)cc3)c3cccn3c2c1` [1f, Bis{N-[4–(8-methoxypyrrolo[1,2-a]quinoxalin-4-yl)benzyl]-3-aminopropyl}methylamine], in data set [1], the IC50 is 130 ± 10 nM and the “Selectivity Index HepG2/W2” value is 26. The compound also gave an IC50 in data set [2] of 4250 ± 200 nM. In data set [3], the IC50 was found to be 5850 ± 70 nM and the “Selectivity Index HepG2/3D7” value stood at 0.58. The same compound displayed a CC50 at 72 h in data set [4] of 3380 ± 900 nM.

Consider `COc1cccc2nc(-c3ccc(CNCCCN(C)CCCNCc4ccc(-c5nc6cccc(OC)c6n6cccc56)cc4)cc3)c3cccn3c12` [1h, Bis{N-[4–(9-methoxypyrrolo[1,2-a]quinoxalin-4-yl)benzyl]-3-aminopropyl}methylamine], for which the IC50 in data set [1] was 440 ± 110 nM; in data set [2], 2070 ± 20 nM; in data set [3] it was 250 ± 40 nM. Further, in data set [1], the “Selectivity Index HepG2/W2” value stood at 5.54. In data set [3], the “Selectivity Index HepG2/3D7” value is given as 9.76. This compound yielded a half-maximal cytotoxic concentration (CC50) at 72 h in data set [4] of 2440 ± 400 nM.

Turning to `COc1ccc2nc(-c3cccc(CNCCCN4CCN(CCCNCc5cccc(-c6nc7ccc(OC)cc7n7cccc67)c5)CC4)c3)c3cccn3c2c1` [1p, Bis{N-[3–(8-methoxypyrrolo[1,2-a]quinoxalin-4-yl)benzyl]-3-aminopropyl}piperazine], the half-maximal inhibitory concentration (IC50) in data set [1] was determined as 170 ± 30 nM; in data set [2], 3390 ± 400 nM; in data set [3] it was 40 ± 4 nM. In data set [1], the “Selectivity Index HepG2/W2” value is listed as 9.23. For the same compound, the “Selectivity Index HepG2/3D7” value in data set [3] is listed as 39.25. In data set [4], the CC50 at 72 h is 1570 ± 800 nM.

Consider `c1ccc2c(c1)nc(-c1ccc(CNCCCNCCCNCc3ccc(-c4nc5ccccc5n5cccc45)cc3)cc1)c1cccn12` [1a, Bis{N-[4-(pyrrolo[1,2-a]quinoxalin-4-yl)benzyl]-3-aminopropyl}amine], for which the IC50 is 850 ± 150 nM in data set [1], 1000 ± 200 nM in data set [2] and 3420 ± 540 nM in data set [3]. Further, in data set [1], the “Selectivity Index HepG2/W2” value amounted to 2.13. In addition, in data set [3], the “Selectivity Index HepG2/3D7” value is on record as 0.53. Further, the cytotoxic concentration (CC50) at 72 h in data set [4] turned out to be 1810 ± 100 nM.

In the case of `c1cc(CNCCCN2CCN(CCCNCc3cccc(-c4nc5ccccc5n5cccc45)c3)CC2)cc(-c2nc3ccccc3n3cccc23)c1` [1n, Bis{N-[3-(pyrrolo[1,2-a]quinoxalin-4-yl)benzyl]-3-aminopropyl}piperazine], in data set [1], the concentration for half-maximal inhibition (IC50) worked out at 50 ± 10 nM and the “Selectivity Index HepG2/W2” value was 40.6. The compound further displayed an IC50 in data set [2] of 3710 ± 400 nM. In data set [3], the IC50 was found to be 370 ± 40 nM and the “Selectivity Index HepG2/3D7” value worked out at 5.49. In addition, the CC50 at 72 h in data set [4] was 2030 ± 1200 nM.

Take `CCOc1ccn2c1c(-c1ccc(CNCCCN(C)CCCNCc3ccc(-c4nc5ccccc5n5ccc(OCC)c45)cc3)cc1)nc1ccccc12` [1j, Bis{N-[4–(3-ethoxypyrrolo[1,2-a]quinoxalin-4-yl)benzyl]-3-aminopropyl}methylamine]: in data set [1], the concentration for half-maximal inhibition (IC50) was 490 ± 160 nM and the “Selectivity Index HepG2/W2” value stood at 3.98. This compound came in with an IC50 in data set [2] of 4260 ± 100 nM. In addition, in data set [3], the IC50 was found to be 260 ± 30 nM and the “Selectivity Index HepG2/3D7” value is recorded as 7.50. In data set [4], this compound registered a cytotoxic concentration (CC50) at 72 h of 1950 ± 300 nM.

As for `c1ccc(-c2nc3ccccc3n3cc(CNCCCN4CCN(CCCNCc5cc6c(-c7ccccc7)nc7ccccc7n6c5)CC4)cc23)cc1` [1r, Bis{N-[(4-phenylpyrrolo[1,2-a]quinoxalin-2-yl)methyl]-3-aminopropyl}piperazine], the IC50 in data set [1] worked out at 750 ± 100 nM; in data set [3], 7220 ± 770 nM.

In turn, `C[C@@H]1[C@H](O)[C@@H](C)/C=C/C=C/C=C/C=C/C=C/C=C/C=C/[C@H](O[C@@H]2O[C@H](C)[C@@H](O)[C@H](N)[C@@H]2O)C[C@@H]2O[C@](O)(C[C@@H](O)C[C@@H](O)[C@H](O)CC[C@@H](O)C[C@@H](O)CC(=O)O[C@H]1C)C[C@H](O)[C@H]2C(=O)O` [Amphotericin B, reference compound] displayed an IC50 in data set [2] of 100 ± 40 nM.

As to `c1ccc2c(c1)cc1c(-c3ccc(CNCCCN4CCN(CCCNCc5ccc(-c6nc7ccccc7n7c6cc6ccccc67)cc5)CC4)cc3)nc3ccccc3n12` [1q, Bis{N-[4-(indolo[1,2-a]quinoxalin-6-yl)benzyl]-3-aminopropyl}piperazine], the IC50 in data set [2] is 570 ± 100 nM; in data set [3], 1000 ± 50 nM. This compound came in with a CC50 at 72 h in data set [4] of 1560 ± 700 nM.

Turning to `CN(CCCNCc1ccc(-c2nc3ccccc3n3cccc23)cc1)CCCNCc1ccc(-c2nc3ccccc3n3cccc23)cc1` [1b, Bis{N-[4-(pyrrolo[1,2-a]quinoxalin-4-yl)benzyl]-3-aminopropyl}methylamine], in data set [1], the IC50 was 4200 ± 650 nM and the “Selectivity Index HepG2/W2” value is 0.37. Further, in data set [3], the half-inhibitory concentration (IC50) worked out at 1200 ± 200 nM and the “Selectivity Index HepG2/3D7” value was 1.30. In data set [4], this compound had a cytotoxic concentration (CC50) at 72 h of 1560 ± 600 nM.

`c1ccc(-c2cc3c(-c4ccc(CNCCCN5CCN(CCCNCc6ccc(-c7nc8ccccc8n8cc(-c9ccccc9)cc78)cc6)CC5)cc4)nc4ccccc4n3c2)cc1` [1l, Bis{N-[4–(2-phenylpyrrolo[1,2-a]quinoxalin-4-yl)benzyl]-3-aminopropyl}piperazine]: the half-inhibitory concentration (IC50) in data set [1] came to 1390 ± 130 nM; in data set [3], 8960 ± 690 nM.
